Reference: patent US6706293B1, “Pharmaceutical composition capable of regulating the expression of adhesion molecules” (Especialidades Farmaceuticas Centrum, S.A., priority 1999, dated 2004)

Legend:
[1] = test system: Female WISTAR rats; assay: Anti-inflammatory activity in acute and chronic phase in rats (adjuvant + carrageenin foot volume, method of Mizushima); format: in vivo, rat; settings: oral, Phenylbutazone 80 mg/Kg, extract 1.25 g per kg
Procedure: A study of the anti-inflammatory activity has been made in acute and chronic phase in rats. The method used was as described by Mizushima. The reference medicament (Phenylbutizene, dose 80 mg/Kg) and the products of the study (dose equivalent to 1.25 g extract per kg weight of animal) were dissolved in a solution of 1% of CMC (carboxymethylcellulose) in distillated water (w/v) and Tween 80: distillated water (0.2:3.3-v/v), in order to be administrated orally. Six days after inoculation, by intradermal route of 0.1 mL of the complete adjuvant Freund (DIFCO) in the basal part of the tail, was injected 0.1 mL of a suspension of carrageenin type IV 2% (w/v) at the aponeurosis of the left back foot. The volume of the foot of the animal was measured, using a water pletismometer, immediately before the carrageenin injection (basal volume) and afterwards at 3, 5, and 7 hours (acute phase of the inflammation) and at 24, 48, 72, and 96 hours (chronic phase of inflammation). The products of the study, the phenylbutazone, and the carrier were administrated, orally and in portions of 6 animals, 1 hour before the carrageenin injection and at 24, 48 and 72 hours. The percentage of inhibition of the inflammation was calculated by comparing the increase of the volume of the animal foot in respect of its basal volume, for each group of animals and in relation to the control group. The control group was given the carrier of phenylbutazone and the products of the study. The statistical significance was evaluated via the T Student test.

[2] = test system: CD11a; assay: In vitro expression of adhesion molecules in peripheral blood mononuclear cells (flow cytometry); format: cell-based, human; settings: PBMNc of 10 healthy individuals, 48 hours culture; PHA 10 μg/ml, Anapsos 150 μg/ml; CONTROL 17%
Procedure: (§1) Peripheral blood was extracted from 10 healthy individuals and the mononuclear cells was separated via Fycoll-Hypaque density gradient centrifugation. The cells was cultivated in plane bottom microtiter plates, at a titer of 1 million/ml for 48 hours in a CO2 incubator, with phytohaemagglutinin (PHA) at concentrations of 0, 0.5, 2, 5 and 10 μg/ml and/or with Anapsos at concentrations between 0 to 5000 μg/ml. Finalized the culturing, the lymphocytes was analyzed by flow cytometry. The expression of determined adhesion molecules (CD11a, CD11b, CD18, CD54) was studied in relation to the different conditions of stimuli. En parallel to the culture as described above, a culture for 5 days was made under the same conditions of stimuli as above. Tritium thymidine was added 16 hours before finalizing the culture. Terminated the culture, the cells was washed with the Harvester and flashing liquid was incorporated into the cells. The cellular incorporation of tritium thymidine was measured via a β counter. During the culturing, the cells were photographed via an inverted microscope.

[3] = test system: CD11b; assay: as above; format: cell-based, human; settings: PBMNc of 10 healthy individuals, 48 hours culture; PHA 10 μg/ml, Anapsos 150 μg/ml; CONTROL 20%
Procedure: as §1

[4] = test system: CD18; assay: as above; format: cell-based, human; settings: PBMNc of 10 healthy individuals, 48 hours culture; PHA 10 μg/ml, Anapsos 150 μg/ml; CONTROL 20%
Procedure: as §1

[5] = test system: CD54; assay: as above; format: cell-based, human; settings: PBMNc of 10 healthy individuals, 48 hours culture; PHA 10 μg/ml, Anapsos 150 μg/ml; CONTROL 2%
Procedure: as §1

Row | Compound | % INHIBITION OF THE INFLAMMATION 3 h ([1]; 3 h after carrageenin (acute phase)) [%] | % INHIBITION OF THE INFLAMMATION 5 h ([1]; 5 h after carrageenin (acute phase)) [%] | % INHIBITION OF THE INFLAMMATION 7 h ([1]; 7 h after carrageenin (acute phase)) [%] | % INHIBITION OF THE INFLAMMATION 24 h ([1]; 24 h after carrageenin (chronic phase)) [%] | % INHIBITION OF THE INFLAMMATION 48 h ([1]; 48 h after carrageenin (chronic phase)) [%] | % INHIBITION OF THE INFLAMMATION 72 h ([1]; 72 h after carrageenin (chronic phase)) [%] | % INHIBITION OF THE INFLAMMATION 96 h ([1]; 96 h after carrageenin (chronic phase)) [%] | Expression, in vitro, of CD11a [2] [%] | Expression, in vitro, of CD11b [3] [%] | Expression, in vitro, of CD18 [4] [%] | Expression, in vitro, of CD54 [5] [%]
1 | CCCCC1C(=O)N(c2ccccc2)N(c2ccccc2)C1=O [Phenylbutazone] | 41 | 27 | 21 | 36 | 60 | 56 | 40 | – | – | – | –
2 | phytohaemagglutinin [PHA] | – | – | – | – | – | – | – | 22 | 35 | 27 | 9
